In patent US8227469B2, “Vanilloid receptor ligands and their use in treatments” (Amgen Inc., priority 2004, dated 2012) one finds melting point data, which are given here for three compounds.

Consider `C[C@@H](c1ccc(F)cc1)N1CCN(c2cc(Nc3ccc4cccnc4c3)ncn2)CC1` [Example 5, (6-{4-[(1S)-1-(4-Fluorophenyl)-ethyl]-piperazin-1-yl}-pyrimidin-4-yl)-quinolin-7-yl-amine], for which the melting point lay within 206 to 207 °C.

Compound `C[C@H](c1ccc(F)cc1)N1CCN(c2cc(Nc3ccc4cccnc4c3)ncn2)CC1` [Example 4, (6-{4-[(1R)-1-(4-Fluorophenyl)-ethyl]-piperazin-1-yl}-pyrimidin-4-yl)-quinolin-7-yl-amine] came in with a melting point of 206 to 207 °C.

Regarding `CC(=O)Nc1nc2c(Oc3cc(C4=CCC(C(C)(C)C)CC4)ncn3)cccc2s1` (stereo not drawn) [Example 8, N-{4-[6-(4-tert-Butyl-cyclohex-1-enyl)-pyrimidin-4-yloxy]-benzothiazol-2-yl}-acetamide], the melting point is > 200 °C (dec.).
